Laboratory results from ChEMBL document CHEMBL3507680, “University of Dundee, Gates Library screen for HepG2 cell viability”.

Assay: Human HepG2 cell viability assay in 384 well format
Assay type: toxicity, cell-based
Set-up: dose 125 nL, time 70.5 hour; concentration not given beside the values
Conditions: HepG2 cells, read-out: Inhibition

| SMILES | cytotoxicity at 70.5 h [%] |
| --- | --- |
| CC(C)Oc1cccc(C(=O)C2CCCN(C(=O)c3ccnn3C)C2)c1 (centres undefined) | 19.8 |
| O=C(NCCCn1cccn1)C1CCC(=O)N(Cc2ccccc2F)C1 (centres undefined) | 4.27 |
| Cn1cc(C(O)CNC(=O)Nc2cc(F)ccc2-n2cccn2)cn1 (centres undefined) | 5.74 |
| CCNC(=O)N(C)C1CCCc2nc(C)sc21 (centres undefined) | -2.26 |
| CC(=O)N1CCN(C(=O)NCCCN(C)S(C)(=O)=O)CC1 | -5.97 |
| CC(=O)N1CCCN(C(=O)NCCCN(C)S(C)(=O)=O)CC1 | -8.8 |
| CC1CCN(C(=O)CSCc2nc(C3CC3)no2)CC1 | -2.56 |
| CC(C)Cc1nc(CSCC(=O)N2CCC(C)CC2)no1 | 3.72 |
| Cn1ncnc1NCc1ccc(F)cc1 | -9.9 |
| Cc1cc(=O)n2nc(Oc3ccc(Cl)c(C)c3)sc2n1 | -6.83 |
| CC(NC(=O)NCc1cccnc1N(C)C)c1cccs1 (centres undefined) | -23.6 |
| Cc1ccc(S(=O)(=O)N2CCN(Cc3ccncc3)CC2)c(Cl)c1 | -26.7 |
| CC(C)NC(=O)c1noc2c1CN(Cc1cnn(C)c1)CC2 | -5.58 |
| Cc1cccc(S(=O)(=O)N2C[C@@H]3C[C@@H](c4nc(C)no4)O[C@@H]3C2)c1 | -3.34 |
| CCN(C(=O)c1nc2c(s1)CCCN2c1ccc(C)nn1)C(C)C | -3.47 |
| CC(C)CCC(=O)N1C[C@H]2CCN[C@H]2C1 | -3.29 |
| Cc1csc(NC(=O)[C@@H]2C[C@H]3[C@H](CCN3S(C)(=O)=O)O2)n1 | -1.16 |
| Cc1nocc1C(=O)N1CCOC2(COCCN(CC3CC3)C2)C1 (centres undefined) | -2.08 |
| Cc1ccc(N2CC[C@H](OCC3CC3)[C@@H]2Cc2ccncc2)nn1 | -4.81 |
| O=C(CC(F)(F)F)N1C[C@H]2CCN[C@H]2C1 | -2.74 |
| COCc1cncc2c1CCN(C(=O)c1cscn1)C2 | 20.4 |
| CC(=O)N1CCC2(CC1)CN(CC1CC1)c1ccc(F)cc12 | 1.47 |

| SMILES | cytotoxicity at 70.5 h [%] |
| --- | --- |
| CN(C)C(=O)[C@H]1CCS(=O)(=O)[C@@H]2CN(c3ncccn3)C[C@H]12 | -4.18 |
| CS(=O)(=O)NCc1ncn2c1CN(C(=O)C1CCCO1)CCC2 (centres undefined) | 0.98 |
| COc1cc(N2C[C@@H]3COC[C@@H](Cc4nnc(C)o4)[C@@H]3C2)ncn1 | -0.141 |
| Cn1c2c(c(=O)n1C)CN(C(=O)c1ccncc1F)CCC2 | 5.23 |
| Cn1c2c(c(=O)n1C)CN(C(=O)c1cccc(F)c1)CCC2 | 1.87 |
| CCOc1ncnc2c1CCN(S(=O)(=O)c1ccccc1)CC2 | -14.4 |
| CCOCC1CN(S(=O)(=O)c2cccc(C)c2)Cc2nccn2C1 (centres undefined) | -8.99 |
| CCOCC1CN(S(=O)(=O)Cc2ccccc2)Cc2nccn2C1 (centres undefined) | -3.22 |
| CC(C)n1c2ccccc2c2c1cc(C(=O)N(C)C)n2C(=O)N(C)C | -0.266 |
| CS(=O)(=O)N1C[C@H]2N(c3ncccn3)CCC[C@@]2(C(=O)NCC2CC2)C1 | -7.17 |
| O=C1CCCN1Cc1nnc2n1CCCN(C(=O)c1ccc[nH]1)C2 | 5.33 |
| COCCN(C)C(C(=O)O)c1ccc(F)c(Cl)c1 (centres undefined) | 30.8 |
| O=C(O)c1cc(-c2cncnc2)cc(S(=O)(=O)N2CCCCCC2)c1 | -10.5 |
| O=C(O)CCc1cn(C2CCN(c3ncccc3Cl)CC2)nn1 | 7.14 |
| Cc1cccc(C)c1OCC(C)Nc1nc(N)nc2c1CCNC2 (centres undefined) | -11.5 |
| CCCc1ccc(CN2CCC3(CCC(=O)N(CCCOC)C3)CC2)o1 | 20.6 |
| Cc1nc(CN2C[C@@H](CN3CCOCC3)[C@@H](CO)C2)c2ccccn12 | 16.5 |
| Nc1ccnc(N2CCCC(CCc3ccccc3)(C(=O)O)C2)n1 (centres undefined) | -3.28 |
| CS(=O)(=O)N1C[C@@H]2CC[C@H](C1)N(CCC(=O)NCc1ccccc1F)C2 | 21.2 |
| CCCC(Cn1cnc(-c2ccccc2)c1-c1cncn1CC)N(C)C (centres undefined) | -0.815 |
| CN(CCc1ccccn1)C(=O)C(c1cccnc1)N1CCOCC1 (centres undefined) | -1.97 |
| Cc1nc(C)c(C)c(N(C)CCCc2nccn2C)n1 | -8.93 |

| SMILES | cytotoxicity at 70.5 h [%] |
| --- | --- |
| CO[C@@H]1c2ccccc2C2(CCN(C(=O)CNC(=O)C(C)C)CC2)[C@H]1O | -6.67 |
| O=C(Cc1ccsc1)N1CCCC(CNS(=O)(=O)Cc2ccccc2)C1 (centres undefined) | -9.34 |
| CCCSc1ncc(-c2nccn2CCC(N)=O)cn1 | -13.6 |
| COc1ccc(-n2cc(CCO)cn2)cc1C(N)=O | -14.7 |
| O=C(c1ccc2nccnc2c1)N1CCN(CCO)[C@@H]2CS(=O)(=O)C[C@@H]21 | -9.05 |
| CN(Cc1ccsc1)c1nc(-c2ccccn2)nc2c1CCNCC2 | -9.47 |
| O=C(CCc1cc2n(n1)CCCN(CCc1ccccc1)C2)NC1CC1 | -11 |
| CC(=O)N[C@@H]1CN(C(=O)c2ccncc2)C[C@H]1c1ccc(C)cc1 | -3.8 |
| O=C1CCCCN1CCc1nc(C2(c3ccc(F)cc3)CCOC2)no1 (centres undefined) | 12.7 |
| O=C(CCC1CCCN(S(=O)(=O)C2CC2)C1)Nc1ccc(Cl)cc1 (centres undefined) | 34.5 |
| CC(C)=CCN1CC2(CCN(C(=O)CCn3ccnc3C)CC2)CC1=O | 0.368 |
| CCN(CC)C(=O)[C@@H]1C[C@@H](NC(=O)c2cccc(N(C)C)c2)CN1C | 26.1 |
| COc1ccccc1OC1CCN(c2nc(N)nc3[nH]cnc23)CC1 | 2.92 |
| CC[C@H](CO)NC(=O)c1coc(COc2ccccc2F)n1 | 2.14 |
| CCOc1ccc(C(=O)N2C[C@H]3CC[C@@H]2CN(C)C3)cc1OCC | -14.6 |
| Cc1cc(C)c2c(N3CCC(C(=O)N4CCOCC4)CC3)ncnc2n1 | 20.2 |
| CC1(C)OC(=O)N(CCCOc2ccc(F)cc2)C1=O | -11.6 |
| CCC1CN(C(=O)c2ncccc2O)CCC(=O)N1Cc1ccccc1 (centres undefined) | -0.966 |
| Cc1nc2sccn2c1C(=O)N1CCc2c(nc(N(C)C)[nH]c2=O)C1 | 1.53 |
| COc1ccc(Cc2ncc3c(n2)CN(C(=O)C(C)(C)C)C3)cc1 | -1.36 |
| CCN1CC(C(=O)NCc2ccc3c(c2)nc(C)n3C)CCC1=O (centres undefined) | -13.6 |
| CCc1c(C)nn(CC(=O)NC(C(=O)O)c2c(C)n[nH]c2C)c1C (centres undefined) | -7.94 |

| SMILES | cytotoxicity at 70.5 h [%] |
| --- | --- |
| CC(C)(CN1CCOCC1)CN1CCC(Cc2cccc(CO)c2)C1 (centres undefined) | 17.8 |
| COc1nc2c(cc1C(=O)NC(C)Cc1cnccn1)CCC2 (centres undefined) | -7.71 |
| O=C(NCCNc1cccnc1)C(c1cccnc1)N1CCCC1 (centres undefined) | -9.35 |
| COCCN(Cc1ccccc1Cl)c1nc(CCN)nc2ccccc12 | -6.84 |
| Cc1cc(C)cc(CCC(=O)NC(C)c2nnn[nH]2)c1 (centres undefined) | -2.97 |
| Cc1cn(CC(=O)N(C)Cc2cccc3ncccc23)c(=O)[nH]c1=O | 6.82 |
| CCc1noc(CN(CCc2ccccc2)C2CCN(C)CC2)n1 | 25.9 |
| Cc1cnc(N2CCc3c(CNc4ccnc(C)n4)cncc3C2)nc1 | 18.6 |
| Cn1cc(C(=O)NCc2cncc3c2CCN(CC2CC2)C3)cn1 | 17.9 |
| CC(C)N(C)Cc1cncc2c1CCN(CC(=O)N(C)C)C2 | 20 |
| CNC(=O)N1CCC2(CC1)c1ncc(-c3cccc(F)c3)n1CCN2C | -1.6 |
| Cc1ccc(CN2C[C@H](OCC3CCOCC3)[C@H]3COC[C@H]32)o1 | 17 |
| CCOC(=O)[C@]12CCCN(Cc3cccs3)C[C@H]1CN(C(C)=O)C2 | -1.84 |
| CN(C)CCN1C(=O)CCC12CCCN(C(=O)c1ccncc1F)C2 (centres undefined) | 15.9 |
| Cn1cncc1C(=O)N1CCOC2(COCCN(CC3CC3)C2)C1 (centres undefined) | -1.4 |
| CCOCc1cncc2c1CCN(C(=O)c1cscn1)C2 | -4.56 |
| CC(C)COCc1cncc2c1CCN(C(=O)c1cscn1)C2 | -2.6 |
| CC1c2ncc(Cn3cccn3)n2CCN1Cc1ccc(F)cc1 (centres undefined) | -2.85 |
| COCCN1C(=O)C2(CCN(CC3CC3)CC2)c2ccccc21 | 0.205 |
| c1cnc(N2C[C@H]3CCN(CC4CC4)C[C@H]3C2)cn1 | 3.82 |
| CC1COC2(CCN(C(=O)Cc3ccncc3)CC2)C1 (centres undefined) | -0.819 |
| N#Cc1ccc(N2CCCC3(CCN(c4cncnc4)C3=O)C2)nc1 (centres undefined) | 7.49 |

| SMILES | cytotoxicity at 70.5 h [%] |
| --- | --- |
| O=C(C1CC=CC1)N1C[C@H]2CN(Cc3ccncc3)C(=O)[C@H]2C1 | 2.42 |
| CCCN1CCC(c2nc3ccc(C)cn3n2)CC1 | -6.41 |
| Cc1csc(CN2CCC3(CC2)COC(COCC2CC2)C3)n1 (centres undefined) | -0.893 |
| CCCN1CCC(c2nc3ccc(-c4cccc(F)c4)cn3n2)CC1 | -7.17 |
| Cc1noc(C)c1CN1CCc2ncnc(-c3ccoc3)c2CC1 | 15.5 |
| Cc1noc(C)c1CN1CCc2ncnc(-c3ccccc3)c2CC1 | 18.5 |
| CN(C)CCN1C[C@@H]2CN(S(=O)(=O)c3ccccc3)C[C@@H]2C1=O | -0.863 |
| Cc1noc(C)c1CN1CCC2(CC1)C(c1cnn(C)c1)CC(=O)N2C (centres undefined) | -7.83 |
| c1cncc(OC[C@]23COC[C@H]2CN(C2CCOCC2)C3)c1 | -1.59 |
| CN(Cc1ccco1)C[C@H]1OC[C@@H]2CN(c3ncc(F)cn3)CC[C@@H]21 | -1.81 |
| COCCO[C@H]1CCN(c2ccc(C)nn2)[C@H]1Cc1cccnc1 | 12.5 |
| CNC(=O)N1CCC2(CC1)c1ncc(C)n1CCN2C | -0.582 |
| N#Cc1ccc(N2CCC3(CCC(=O)N3CCN3CCCC3)CC2)nc1 | -9.44 |
| CN(C)CCN1C(=O)C2(CCN(CC3CC3)CC2)c2ccccc21 | -4.59 |
| CCN1C(=O)C2(CCN(CCN(C)C)CC2)c2ccccc21 | 19.9 |
| CC1c2ncc(Cn3cccn3)n2CCN1Cc1ccccn1 (centres undefined) | -1.75 |
| c1cc(CN2C[C@@H]3OCCN(CC4CC4)[C@@H]3C2)n[nH]1 | -7.71 |
| Cc1noc(C)c1CN1CCc2ncnc(-c3ccncc3)c2CC1 | 42.6 |
| O=C(C1CCC2(CCN(Cc3cccnc3)CC2)CO1)N1CCCC1 (centres undefined) | -7.42 |
| Cn1cnc(S(=O)(=O)N2CC3(CCN(Cc4ccncc4)C3)C2)c1 | -6.66 |
| Cc1cc(C(=O)N2CCc3nc(N4CCOCC4)nc(C)c3C2)c(C)o1 | -6.78 |
